Experimental data from US10874743B2, “IRAK degraders and uses thereof” (Kymera Therapeutics, Inc., priority 2017, dated 2020).

Biological target: T1, IRAK4 (Homo sapiens, UniProt Q9NWZ3)
T1 sequence (Q9NWZ3 1-460): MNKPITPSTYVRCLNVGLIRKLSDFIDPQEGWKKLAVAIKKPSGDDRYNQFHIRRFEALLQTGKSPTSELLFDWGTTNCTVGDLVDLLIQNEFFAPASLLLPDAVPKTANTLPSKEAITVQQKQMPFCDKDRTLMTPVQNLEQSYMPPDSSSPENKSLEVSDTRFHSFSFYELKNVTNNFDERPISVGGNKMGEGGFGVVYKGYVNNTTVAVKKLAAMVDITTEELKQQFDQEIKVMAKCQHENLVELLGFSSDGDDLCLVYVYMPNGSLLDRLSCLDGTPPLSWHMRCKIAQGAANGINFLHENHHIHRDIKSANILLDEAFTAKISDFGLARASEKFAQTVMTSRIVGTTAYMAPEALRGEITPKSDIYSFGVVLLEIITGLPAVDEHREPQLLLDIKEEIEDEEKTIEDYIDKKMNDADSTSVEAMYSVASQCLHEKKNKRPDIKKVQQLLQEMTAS
Assay: OCI-LY-10 MSD assay for IRAK4 DC50
Format: cell-based
Set-up: endogenous in cells; host or cells: OCI-LY10
Settings: OCI-LY10 cells, 4 hr incubation, concentration required to degrade 50% of protein
Method: A MSD assay was run to determine the concentration of compound required to degrade 50% of protein (DC50).
Day 1 • Compounds were reconstituted to 10 mM in stock solutions. The stock solutions were diluted to 5 mM and 45 μL of each dilution was transferred to a 384 pp-plate. A 3 fold, 8-point serial dilution was performed by transferring 15 μL of compound into 30 μL DMSO using Janus. • 20 nL of each compounds were added into each well of a 96-well plate (Corning3799). • OCI-Ly10 cells were seeded into the 96-well plate at 3.0*10e^5 cells/100 μL/well. • The cell plate was shaken at 720 rpm for 5 min and incubated for 4 hr. • The 100 μL of cells were transferred into the 96-PCR plate and spun down at high speed for 5 mins. • The supernatant was discarded and 100 μL of RIPA lysis buffer with proteinase inhibitors was added per well. The plate was then sealed and shaken at 600 rpm and 4° C. for about 20 min. • The plate was then spun down at high speed (about 3200 g) for 30 min and then frozen in a −80° C. fridge. • A bare MSD plate (L15XA-3) was coated with 2 μg/mL of capture antibody (mouse Anti-IRAK4 antibody [2H9], ab119942) in PBS to 40 μL/well and incubated overnight at 4° C.
Day 2 • The MSD coated plate was washed 3× (150 μL/well) with 1×TBST (CST #9997S). • The MSD plate was then blocked with 150 μL of blocking buffer [3% Blocker A (MSD, R93BA-4) in TBST]/well and shaken for 1 hr at R^† and 600 rpm. • The MSD plate was washed 3× (150 μL/well) with 1×TBST. The sample RIPA lysates were then added to the MSD plate (50 μL/well) and shaken for 1 hr at R^† and 600 rpm. • The MSD plate was washed 3× (150 μL/well) with 1×TBST and the primary detection antibody (Rabbit Anti-IRAK4 antibody [Y279], ab32511) was added to a final concentration of 1 μg/ml with 25 μL/well. The plate was then shaken for 1 hr at RT and 600 rpm. • The MSD plate was washed 3× (150 μL/well) with 1×TBST and the secondary detection antibody, SULFO-TAG anti-species antibody (Anti Rabbit Antibody (R32AB-5) MSD, R32AB-1) was added to a volume of 25 μL/well at a final concentration of 1 jag/ml. The plate was then shaken for 1 hr at RT and 600 rpm. • The MSD plate was then washed 3× (150 μL/well) with 1×TBST. • lx MSD reading buffer was then added (150 μL/well) and the plate was diluted with 4× water. (MSD, R92TC-2) • The MSD instrument was then read.
Data Analysis • The remaining activity was calculated following the formula below:
Calculate • The DC50 was calculated by fitting the Curve using Xlfit (v5.3.1.3), equation 201: Y=Bottom+(Top−Bottom)/(1+10^((Log IC50−X)*HillSlope))
OCI-LY-10 DC50 results. The letter codes for IRAK4 DC50 indicate the concentration of compound required to degrade 50% of protein: A (<0.05 μM), B (0.05-0.1 μM), C (0.1-0.5 μM), D (0.5-1.0 μM), and E (>1.0 μM).

Compound	DC50 [nM]
NC(=O)c1nn(-c2ccc(CNCCCOCCCNc3cccc4c3C(=O)N(C3CCC(=O)NC3=O)C4=O)cc2)cc1NC(=O)c1coc(-c2ccnc(NCC3CC3)c2)n1 (centres unmarked) [I-399]	< 50
Cn1c(=O)n(C2CCC(=O)NC2=O)c2cccc(CCCOCCOCCNC(=O)c3ccc(-n4cc(NC(=O)c5coc(-c6ccnc(NCC(F)(F)F)c6)n5)c(C(F)F)n4)cc3)c21 (centres unmarked) [I-280]	< 50
Cn1c(=O)n(C2CCC(=O)NC2=O)c2cccc(CCCOCCCOCCCNCc3ccc(-n4cc(NC(=O)c5coc(-c6ccnc(NCC7CC7)c6)n5)c(C(F)F)n4)cc3)c21 (centres unmarked) [I-406]	< 50
Cn1cc(NC(=O)c2coc(-c3ccnc(NCC(F)(F)F)c3)n2)c(CNCCOCCOCCOCCNc2cccc3c2C(=O)N(C2CCC(=O)NC2=O)C3=O)n1 (centres unmarked) [I-408]	> 1000
Cn1c(=O)n(C2CCC(=O)NC2=O)c2cccc(CCCOCCOCCOCCOCCN[C@H]3CC[C@H](Nc4ncnc5[nH]cc(C6CCOCC6)c45)CC3)c21 (some centres unmarked) [I-442, 3-[3-Methyl-2-oxo-4-[3-[2-[2-[2-[2-[[4-[(5-tetrahydropyran-4-yl-7H-pyrrolo[2,3-d]pyrimidin-4-yl)amino]cyclohexyl]amino]ethoxy]ethoxy]ethoxy]ethoxy]propyl]benzimidazol-1-yl]piperidine-2,6-dione]	> 1000
Cn1c(=O)n(C2CCC(=O)NC2=O)c2ccc(CCCCOCCCCNCc3ccc(-n4cc(NC(=O)c5coc(-c6ccnc(NCC7CC7)c6)n5)c(C(F)F)n4)cc3)cc21 (centres unmarked) [I-411, 2-[2-(cyclopropylmethylamino)-4-pyridyl]-N-[3-(difluoromethyl)-1-[4-[[4-[4-[1-(2,6-dioxo-3-piperidyl)-3-methyl-2-oxo-benzimidazol-5-yl]butoxy]butylamino]methyl]phenyl]pyrazol-4-yl]oxazole-4-carboxamide]	< 50
CN[C@@H](C)C(=O)N[C@H](C(=O)N1Cc2cc(OCCOCCOCCOCCNCc3ccc(-n4cc(NC(=O)c5coc(-c6ccnc(NCC7CC7)c6)n5)c(C(F)F)n4)cc3)ccc2C[C@H]1C(=O)N[C@@H]1CCCc2ccccc21)C(C)(C)C [I-681, 2-[2-(Cyclopropylmethylamino)-4-pyridyl]-N-[3-(difluoromethyl)-1-[4-[[2-[2-[2-[2-[[(3S)-2-[(2S)-3,3-dimethyl-2-[[(2S)-2-(methylamino)propanoyl]amino]butanoyl]-3-[[(1R)-tetralin-1-yl]carbamoyl]-3,4-dihydro-1H-isoquinolin-7-yl]oxy]ethoxy]ethoxy]ethoxy]ethylamino]methyl]phenyl]pyrazol-4-yl]oxazole-4-carboxamide]	500 to 1000
Cn1cc(NC(=O)c2coc(-c3cccnc3NCCOCCOCCOCCNc3cccc4c3C(=O)N(C3CCC(=O)NC3=O)C4=O)n2)c(C(F)F)n1 (centres unmarked) [I-432, N-[3-(difluoromethyl)-1-methyl-pyrazol-4-yl]-2-[2-[2-[2-[2-[2-[[2-(2,6-dioxo-3-piperidyl)-1,3-dioxo-isoindolin-4-yl]amino]ethoxy]ethoxy]ethoxy]ethylamino]-3-pyridyl]oxazole-4-carboxamide]	> 1000

Results, then the molecule that gave them:

DC50 [nM]	Compound
> 1000	Cn1cc(NC(=O)c2coc(-c3ccnc(NCC(F)(F)F)c3)n2)c(C(=O)NCCOCCOCCOCCNc2cccc3c2C(=O)N(C2CCC(=O)NC2=O)C3=O)n1 (centres unmarked) [I-292]
< 50	Cn1c(=O)n(C2CCC(=O)NC2=O)c2cccc(CCCOCCOCCNC(=O)c3ccc(-n4cc(NC(=O)c5coc(-c6ccnc(NCC7CC7)c6)n5)c(C(F)F)n4)cc3)c21 (centres unmarked) [I-253]
100 to 500	Cc1ncsc1-c1ccc(CNC(=O)[C@@H]2C[C@@H](O)CN2C(=O)[C@@H](NC(=O)COCCOCCOCCNCc2ccc(-n3cc(NC(=O)c4coc(-c5ccnc(NCC(F)(F)F)c5)n4)c(C(N)=O)n3)cc2)C(C)(C)C)cc1 [I-414]
